Source: patent US20210221777A1, “NOVEL COMPOUNDS RELATED TO MY[…] METHODS OF TREATING CANCER” (priority 2020, published 2021)
Where two headings read alike, the source gives them in different places.

Experiments:
[1] = Shelf life / preservation studies (1H NMR)
Source text: Our final approach reinvestigating 1 involved exploring the relevance of the C(8)-OH stereocenter and labile C-14/C-19 diene system for their SAR significance related to the cytotoxicity of 1 against tumor cell lines.

[2] = test system: hypoxia-induced factor (HIF-1) signaling in T47D breast tumor cells; settings: cited from earlier work; for IC50: hypoxia-induced, read-out: IC50 against HIF-1 signaling
[3] = test system: pancreatic (PANC-1) tumor cell lines; assay: Cytotoxicity vs. PANC-1 tumor cell line
[4] = test system: pancreatic (PANC-1), liver (HepG2), and colon (HCT-116) tumor cell lines; assay: Cytotoxicity of fresh 1, summary over PANC-1, HepG2 and HCT-116; format: cell-based
[5] = Sample storage degradation experiments a-e followed by LCMS; format: physicochemical; settings: 24 hrs
Source text: Recent work in our laboratory using HPLC during the scale up isolation of mycothiazole (1) hinted that mycothiazole-4,19-diol (7)^6 may also be an artifact of isolation encountered during routine purification of degraded 1. To test this hypothesis, we subjected freshly purified 1 to a variety of sample storage experimental conditions (a-e) summarized in Table 2. Analytical (LCMS) data was used to determine purity outcomes of 1 in terms of its observed degradation which is summarized at the bottom of Table 2 and in FIG. 2. […] Furthermore, the diagnostic MS m/z ion peak (439, [M+H]^+)^6 characteristic of 7 was also observed in samples b-c and e, but not in a or d, as shown in FIG. 2. Selected examples included molecular ion peaks of 421 m/z and 437 m/z. We were unable to pursue full or even partial structure elucidation of these components or the observed 439 m/z ion peak, using NMR studies, due to insufficient material.

[6] = test system: colon (HCT-116) tumor cell line; settings: literature value, may be inaccurate due to compound degradation, read-out: HCT 116 IC50 (Sashidhara et al., 2009); cited from earlier work
[7] = test system: human colon tumor (HCT-15) cell lines; settings: Manta et al., read-out: GI50 against HCT-15; cited from earlier work
solid tumor cell lines = settings: read-out: cytotoxicity IC50 against a wide variety of solid tumor cell lines; range over literature cell lines; cited from earlier work
[8] = test system: colon (HCT-116) tumor cell line; assay: Cytotoxicity vs. HCT 116 tumor cell line; format: cell-based; settings: this work, ± SEM, N = 2
[9] = read-out: PANC-1 IC50, PANC-1, this work, ± SEM, N = 2
[10] = a) standard protocol: amber vial, Argon, dark desiccator under vacuum
[11] = b) MeOH-O2 (air stream), amber vial, room temp. 22° C.
[12] = c) MeOH-N2 (N2 stream), amber vial, room temp. 22° C.
[13] = d) refrigeration 4° C., amber vial, Argon
[14] = e) direct light (hv), clear vial, 24° C.

Compound: 8-O-acetyl-mycothiazole [8-O-acetyl-mycothiazole (2)]
- time stable in preservation studies using 1H NMR ([1]; stored by standard storage protocol (Table 2a), more stable than 1): ≥ 6 months
- IC50 [2]: ~1 nM
- IC50 [3, 9]: 1.3 nM

Compound: C=CC/C=C\Cc1csc(C(C)(C)C(=O)C/C=C\C(=C)CCNC(=O)OC)n1 [8-Oxo-mycothiazole (8), 8-oxo-mycothiazole]
- fold less potent than 1 (cytotoxicity) ([3]; PANC-1, relative to 1): 10,000 times
- IC50 [3, 9]: 2000 nM

Compound: C=CC/C=C\Cc1csc(C(C)(C)[C@H](O)C/C=C\C(=C)CCNC(=O)OC)n1 [mycothiazole (1), mycothiazole]
- increase in potency of fresh 1 versus earlier data ([4]; PANC-1, HepG2, HCT-116): tenfold increase
- IC50 ([4]; range over PANC-1, HepG2, HCT-116, read-out: IC50 of fresh 1 across three tumor cell lines): 0.16 to 0.36 nM
- analytical LCMS data UV-PDA maximum absorbance units of 1 [5, 10]: 500000 AU
- purity outcomes of 1 involving its degradation [5, 10]: minimal degradation
- MS-TIC of visible impurity peaks [5, 11]: ~45% relative % relative abundance of m/z io
- analytical LCMS data UV-PDA maximum absorbance units of 1 [5, 11]: 500000 AU
- purity outcomes of 1 involving its degradation [5, 11]: partial degradation
- MS-TIC of visible impurity peaks [5, 12]: ~45% relative % relative abundance of m/z io
- analytical LCMS data UV-PDA maximum absorbance units of 1 [5, 12]: 500000 AU
- purity outcomes of 1 involving its degradation [5, 12]: partial degradation
- MS-TIC of visible impurity peaks [5, 13]: ~20% relative % relative abundance of m/z io
- analytical LCMS data UV-PDA maximum absorbance units of 1 [5, 13]: 500000 AU
- purity outcomes of 1 involving its degradation [5, 13]: minimal degradation
- MS-TIC of visible impurity peaks [5, 14]: ~60% relative % relative abundance of m/z io
- analytical LCMS data UV-PDA maximum absorbance units of 1 [5, 14]: 280000 AU
- purity outcomes of 1 involving its degradation [5, 14]: severe degradation
- shelf life ([1]; pure 1, storage protocols a or d of Table 2): 3-6 weeks
- stability on storage ([1]; stored at 4° C.): unstable
- IC50 [6]: 3.8 ± 0.24 nM
- GI50 [7]: 44000 nM
- IC50 [2]: ~1 nM
- IC50 (solid tumor cell lines): 0.36 to 13.8 nM
- IC50 ([3]; Homo sapiens, PANC-1, read-out: PANC-1 IC50): 0.16 nM

Compound: C=CC/C=C\Cc1csc(C(C)(C)[C@H](O)C/C=C/C(O)(CO)CCNC(=O)OC)n1 (stereo partly drawn) [mycothiazole-4,19-diol (7), mycothiazole-4,19-diol, reference compound]
- IC50 [8]: > 1000 nM
- times less potent than 1 or 2 at suppression of hypoxia-induced HIF-1 activation [2]: at least 1000 times
